Tested on: haloperidol induced catalepsy
Test: not given
Conditions: rats; cited from earlier work

Row | SMILES | haloperidol induced catalepsy
1 | COc1ccc(Cc2nccc3cc(OC)c(OC)cc23)cc1OC [papaverine] | increases

Tested on: apomorphine induced stereotypes
Test: not given
Conditions: rats; cited from earlier work

Row | SMILES | apomorphine induced stereotypes
2 | COc1ccc(Cc2nccc3cc(OC)c(OC)cc23)cc1OC [papaverine] | reduces

Biological target: Human PDE10A1 (Homo sapiens, UniProt Q9Y233)
Test: hPDE10A1 enzyme inhibition ([3H]-cAMP hydrolysis, scintillation counting)
Assay type: biochemical
Conditions: Human PDE10A1, [3H]-cAMP substrate, 20 minutes at 37° C.; read-out: hPDE10A1 IC50 Band
Procedure: 50 μl samples of serially diluted Human PDE10A1 enzyme were incubated with 50 μl of [^3H]-cAMP for 20 minutes (at 37° C.). Reactions were carried out in Greiner 96 deep well 1 ml master-block. The enzyme was diluted in 20 mM Tris HCl pH7.4 and [^3H]-cAMP was diluted in 10 mM MgCl2, 40 mM Tris.HCl pH 7.4. The reaction was terminated by denaturing the PDE enzyme (at 70° C.) after which [^3H]-5′-AMP was converted to [^3H]-adenosine by adding 25 μl snake venom nucleotidase and incubating for 10 minutes (at 37° C.). Adenosine, being neutral, was separated from charged cAMP or AMP by the addition of 200 μl Dowex resin. Samples were shaken for 20 minutes then centrifuged for 3 minutes at 2,500 r.p.m. 50 μl of supernatant was removed and added to 200 μl of MicroScint-20 in white plates (Greiner 96-well Optiplate) and shaken for 30 minutes before reading on Perkin Elmer TopCount Scintillation Counter.
To check inhibition profile 11 μl of serially diluted inhibitor was added to 50 μl of [^3H]-cAMP and 50 μl of diluted Human PDE10A1 and assay was carried out as in the enzyme activity assay. Data was analysed using Prism software (GraphPad Inc).

Chain of Human PDE10A1 (Q9Y233 1-779 isoform Q9Y233-1): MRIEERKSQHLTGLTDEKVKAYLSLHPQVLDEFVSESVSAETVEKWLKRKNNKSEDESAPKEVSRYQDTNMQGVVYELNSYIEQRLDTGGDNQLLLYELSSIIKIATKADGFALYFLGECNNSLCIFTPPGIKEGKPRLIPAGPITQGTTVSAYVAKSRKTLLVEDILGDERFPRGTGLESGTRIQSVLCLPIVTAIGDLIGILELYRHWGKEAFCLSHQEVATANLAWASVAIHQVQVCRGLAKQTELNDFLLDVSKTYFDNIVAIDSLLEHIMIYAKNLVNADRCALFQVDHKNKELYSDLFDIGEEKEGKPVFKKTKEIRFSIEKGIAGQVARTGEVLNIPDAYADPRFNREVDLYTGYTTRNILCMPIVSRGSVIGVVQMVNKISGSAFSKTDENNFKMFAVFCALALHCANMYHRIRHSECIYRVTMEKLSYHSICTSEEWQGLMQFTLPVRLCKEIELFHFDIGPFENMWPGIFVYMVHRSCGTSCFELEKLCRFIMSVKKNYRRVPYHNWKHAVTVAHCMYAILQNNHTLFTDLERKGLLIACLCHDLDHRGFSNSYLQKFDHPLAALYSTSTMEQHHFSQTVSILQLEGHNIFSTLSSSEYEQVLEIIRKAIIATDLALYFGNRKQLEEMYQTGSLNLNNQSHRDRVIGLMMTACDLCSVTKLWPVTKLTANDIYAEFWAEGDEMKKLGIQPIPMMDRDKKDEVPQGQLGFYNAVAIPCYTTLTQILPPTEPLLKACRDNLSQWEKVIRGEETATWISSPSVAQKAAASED

Row | SMILES | IC50 [nM]
3 | COc1ccc(C2=C(c3ccc(OCc4ccc5ccccc5n4)cc3)COC2=O)cc1 [Example 14] | ≤ 50
4 | O=C1OCC(c2ccncc2)=C1c1ccc(OCc2ccc3ccccc3n2)cc1 [Example 37, 4-(Pyridin-4-yl)-3-(4-(quinolin-2-ylmethoxy)phenyl)furan-2(5H)-one] | ≤ 50
5 | COc1ccc(C2=C(c3ccc(OCc4ccc5ccccc5n4)cc3)C(=O)OC2)cc1F [Example 53, 4-(3-fluoro-4-methoxyphenyl)-3-(4-(quinolin-2-ylmethoxy)phenyl)furan-2(5H)-one] | ≤ 50
6 | COc1ccc(C2=C(c3ccc(OCc4ccc5ccccc5n4)cc3)C(=O)OC2)cc1Cl [Example 54, 4-(3-Chloro-4-methoxyphenyl)-3-(4-(quinolin-2-ylmethoxy)phenyl)furan-2(5H)-one] | ≤ 50
7 | COc1ccc(C2=C(c3ccc(OCc4ccc5ccccc5n4)cc3)C(=O)OC2)cc1C#N [Example 55, 2-Methoxy-5-(5-oxo-4-(4-(quinolin-2-ylmethoxy)phenyl)-2,5-dihydrofuran-3-yl)benzonitrile] | ≤ 50
8 | COc1ccc(C2=C(c3ccc(OCc4ccc5ccccc5n4)cc3)C(=O)OC2)cc1 [Example 59, 4-(4-Methoxyphenyl)-3-(4-(quinolin-2-ylmethoxy)phenyl)furan-2(5H)-one] | ≤ 50
9 | CN1CC(c2ccncc2)=C(c2ccc(OCc3ccc4ccccc4n3)cc2)C1=O [Example 94, 1-Methyl-4-(pyridin-4-yl)-3-(4-(quinolin-2-ylmethoxy)phenyl)-1H-pyrrol-2(5H)-one] | ≤ 50
10 | COc1ccc(C2=C(c3ccc(OCc4ccc5ccccc5n4)cc3)C(=O)N(C)C2)cc1 [Example 125, 4-(4-Methoxyphenyl)-1-methyl-3-(4-(quinolin-2-ylmethoxy)phenyl)-1H-pyrrol-2(5H)-one] | ≤ 50
11 | COc1ccc(C2=C(c3ccc(OCc4ccc5ccccc5n4)cc3Cl)COC2=O)cc1 [Example 424, 4-(2-chloro-4-(quinolin-2-ylmethoxy)phenyl)-3-(4-methoxyphenyl)furan-2(5H)-one] | > 50

The remaining lines, values ahead:

Row | IC50 [nM] | SMILES
12 | > 50 | O=C1OCC(N2CCOCC2)=C1c1ccc(OCc2ccc3ccccc3n2)cc1 [Example 1085, 4-Morpholino-3-(4-(quinolin-2-ylmethoxy)phenyl)furan-2(5H)-one]
13 | ≤ 50 | O=c1o[nH]c(-c2ccncc2)c1-c1ccc(OCc2ccc3ccccc3n2)cc1 [Example 1094, 3-(Pyridin-4-yl)-4-(4-(quinolin-2-ylmethoxy)phenyl)isoxazol-5(2H)-one]
14 | > 50 | COc1ccc(C2=C(c3ccc(OCc4cccc(C)n4)cc3)COC2=O)cc1 [Example 1095, 3-(4-methoxyphenyl)-4-(4-((6-methylpyridin-2-yl)methoxy)phenyl)furan-2(5H)-one]
15 | > 50 | O=c1[nH][nH]c(-c2ccncc2)c1-c1ccc(OCc2ccc3ccccc3n2)cc1 [Example 1096, 5-(Pyridin-4-yl)-4-(4-(quinolin-2-ylmethoxy)phenyl)-1H-pyrazol-3(2H)-one]
16 | > 50 | Cn1[nH]c(-c2ccncc2)c(-c2ccc(OCc3ccc4ccccc4n3)cc2)c1=O [Example 1097, 2-Methyl-5-(pyridin-4-yl)-4-(4-(quinolin-2-ylmethoxy)phenyl)-1H-pyrazol-3(2H)-one]
17 | > 50 | O=C1OCC(c2cccnc2)=C1c1ccc(OCc2ccc3ccccc3n2)cc1 [Example 1098, 4-(Pyridin-3-yl)-3-(4-(quinolin-2-ylmethoxy)phenyl)furan-2(5H)-one]
18 | > 50 | O=C1OCC(c2ccncc2)=C1c1ccc(OCc2ccc3ccccc3n2)c(Cl)c1 [Example 1099, 3-(3-chloro-4-(quinolin-2-ylmethoxy)phenyl)-4-(pyridin-4-yl)furan-2(5H)-one]

Tested on: rat brain dopamine levels
Test: not given
Conditions: rats; cited from earlier work

Row | SMILES | rat brain dopamine levels
19 | COc1ccc(Cc2nccc3cc(OC)c(OC)cc23)cc1OC [papaverine] | reduces

— US8481534B2, “5- and 6-membered heterocyclic compounds” (EnVivo Pharmaceuticals, Inc., priority 2008, dated 2013)
